The source of these data is patent US8247612B2, “Organic sulfur compound and its use for controlling harmful arthropod” (Sumitomo Chemical Company, Limited, priority 2007, dated 2012).

Holding throughout (type): in vivo
One experiment relates to Culex pipiens pallens. Nature of the experiment: Test Example 4: larvae in treated water, death rate of Culex pipiens pallens. Conditions: 24 h, active ingredient concentration 3.5 ppm in water, 20 last-instar larvae, after one day. How it is done:
Preparations of the present compounds (1), (2), (3), (4), (5), (6), (9), (10), (11), (12), (14), (15), (16), (17), (19), (20), (22), (23), (24), (26), (27), (28), (29), (30) and (31) obtained according to Formulation Example 36 were diluted so that the active ingredient concentration was 500 ppm to obtain test solutions. To 100 mL of ion-exchanged water, 0.7 ml of the test solution was added (active ingredient concentration: 3.5 ppm). Into the solution, 20 last-instar larvae of Culex pipiens pallens were released. After one day, the number of surviving Culex pipiens pallens was examined and the death rate of the pest was calculated. As a result, in treatments with the present compounds (1), (2), (3), (4), (5), (6), (9), (10), (11), (12), (14), (15), (16), (17), (19), (20), (22), (23), (24), (26), (27), (28), (29), (30) and (31), the death rate of the pest was 90% or more.

The test system of a further experiment is Musca domestica. Kind of experiment: Test Example 2: treated filter paper with sucrose bait, death rate of Musca domestica. Conditions: 500 ppm test solution, 0.7 ml on filter paper, 10 female imagoes, after 24 hours. The protocol: Preparations of the present compounds (2), (3), (5), (6), (9), (10), (11), (12), (13), (14), (15), (16), (17), (19), (20), (24), (25), (26), (28), (29), (30) and (31) obtained according to Formulation Example 36 were diluted so that the active ingredient concentration was 500 ppm to obtain test solutions.
A filter paper having a diameter of 5.5 cm was spread on the bottom of a polyethylene cup having a diameter of 5.5 cm and 0.7 ml of the test solution was added dropwise onto the filter paper. As a bait 30 mg of sucrose was uniformly placed on the filter paper. Into the polyethylene cup, 10 female imagoes of Musca domestica were released and the cup was sealed with a lid. After 24 hours, the number of surviving Musca domestica was examined and the death rate of the pest was calculated.
As a result, in treatments with the present compounds (2), (3), (5), (6), (9), (10), (11), (12), (13), (14), (15), (16), (17), (19), (20), (24), (25), (26), (28), (29), (30) and (31), the death rate of the pest was 70% or more.

Experiment [1] has as its system Haemaphysalis longicornis. Kind of experiment: Test Example 5: treated filter paper pouch, death rate of ticks. Conditions: filter paper treated with 100 mg/m^2; non-blood-sucking nymphal ticks, 10 ticks/group; after 2 days. How it is done: Five milligrams of any one of the present compounds (3), (10), (14), (15), (16) and (17) was dissolved in 10 mL of acetone. One milliliter of the acetone solution was uniformly applied on one side of a filter paper (TOYO No. 2; 5×10 cm), so that the filter paper was treated with 100 mg/m^2 of the present compound. After drying, the filter paper was folded in two and its edges were clipped to make a pouch. Non-blood-sucking nymphal ticks (Haemaphysalis longicornis, 10 ticks/group) were put into the pouch, and the pouch was sealed with clips. After 2 days, the number of surviving ticks was examined and the death rate was calculated. As a result, in treatments with the present compounds (3), (10), (14), (15), (16) and (17), the death rate of the tick was 90%.

The subject of the next experiment is Blattalla germanica. Kind of experiment: Test Example 3: treated filter paper with sucrose bait, death rate of Blattalla germanica. Conditions: 144 h; 500 ppm test solution, 0.7 ml on filter paper; 2 male imagoes; after 6 days. The protocol: Preparations of the present compounds (2), (3), (5), (6), (10), (11), (12), (14), (15), (16), (17), (19), (20), (24), (25), (26), (29), (30) and (31) obtained according to Formulation Example 36 were diluted so that the active ingredient concentration was 500 ppm to obtain test solutions.
A filter paper having a diameter of 5.5 cm was spread on the bottom of a polyethylene cup having a diameter of 5.5 cm and 0.7 ml of the test solution was added dropwise onto the filter paper. As a bait 30 mg of sucrose was uniformly placed on the filter paper. Into the polyethylene cup, 2 male imagoes of Blattalla germanica were released and the cup was sealed with a lid. After 6 days, the number of surviving Blattalla germanica was examined and the death rate of the pest was calculated.
As a result, in treatments with the present compounds (2), (3), (5), (6), (10), (11), (12), (14), (15), (16), (17), (19), (20), (24), (25), (26), (29), (30) and (31), the death rate of the pest was 100%.

In turn, `CCC(CCC(F)(C#N)S(=O)(=O)CCC(F)(F)F)C(F)(F)F` (stereo not drawn) [present compound (15), 2-fluoro-5-(trifluoromethyl)-2-(3,3,3-trifluoropropylsulfonyl)heptanenitrile] came in with a pest or weed control at 3.5 ppm with Culex pipiens pallens of at least 90%. For the same compound, the values for the pest or weed control at 500 ppm in the experiment with Musca domestica and with Blattalla germanica were at least 70% and 100%, respectively. In addition, in experiment [1], the “death rate of the tick” value is reported as 90%.

`CCC(CCC(Cl)(C#N)S(=O)(=O)CCC(F)(F)F)C(F)(F)F` (stereo not drawn) [present compound (16), 2-chloro-5-(trifluoromethyl)-2-(3,3,3-trifluoropropylsulfonyl)heptanenitrile] registered a pest or weed control at 3.5 ppm with Culex pipiens pallens of at least 90%. Moreover, the pest or weed control at 500 ppm was at least 70% with Musca domestica and 100% in the experiment on Blattalla germanica. Moreover, in experiment [1], the “death rate of the tick” value is 90%.

In the experiment with Culex pipiens pallens, `CCC(CCC(C#N)S(=O)(=O)CCC(F)(F)F)C(F)(F)F` (stereo not drawn) [present compound (14), 5-(trifluoromethyl)-2-(3,3,3-trifluoropropylsulfonyl)heptanenitrile] gave a pest or weed control at 3.5 ppm of at least 90%. The pest or weed control at 500 ppm in the experiment on Musca domestica was at least 70%; in the experiment with Blattalla germanica it was 100%. Besides, the “death rate of the tick” value in experiment [1] is given as 90%.

Turning to `CC(CCC(Cl)(C(N)=O)S(=O)(=O)CCC(F)(F)F)C(F)(F)F` (stereo not drawn) [present compound (3), 2-chloro-6,6,6-trifluoro-5-methyl-2-(3,3,3-trifluoropropylsulfonyl)hexanamide], in the experiment with Culex pipiens pallens, the pest or weed control at 3.5 ppm was at least 90%. Further, the values for the pest or weed control at 500 ppm with Musca domestica and in the experiment on Blattalla germanica were at least 70% and 100%, respectively. In experiment [1], the “death rate of the tick” value was found to be 90%.

Consider `CCC(CCC(C)(C#N)S(=O)(=O)CCC(F)(F)F)C(F)(F)F` (stereo not drawn) [present compound (17), 2-methyl-5-(trifluoromethyl)-2-(3,3,3-trifluoropropylsulfonyl)heptanenitrile], for which, in the experiment on Culex pipiens pallens, the pest or weed control at 3.5 ppm is at least 90%. Also, the values for the pest or weed control at 500 ppm with Musca domestica and with Blattalla germanica were at least 70% and 100%, respectively. The “death rate of the tick” value in experiment [1] worked out at 90%.

In the experiment with Culex pipiens pallens, `CC(CCC(C#N)S(=O)(=O)CCC(F)(F)F)C(F)(F)F` (stereo not drawn) [present compound (10), 6,6,6-trifluoro-5-methyl-2-(3,3,3-trifluoropropylsulfonyl)hexanenitrile] yielded a pest or weed control at 3.5 ppm of at least 90%. The pest or weed control at 500 ppm is at least 70% with Musca domestica and 100% in the experiment with Blattalla germanica. In addition, the “death rate of the tick” value in experiment [1] was determined as 90%.

For orientation: pest or weed control means the degree to which the test organism was suppressed or injured, in per cent. High values mean strong suppression, low ones weak suppression.
